Measurements: patent US20090291999A1, “Agent Exhibiting a Neurotropic, Neuromodulator, Cerebrovascular and Anti-Stroke Activity” (AKHAPKINA, Valentina Ivanovna, priority 2006, published 2009)
Marks after values point to notes of the source that are not given here.

Tests used:
[1] = Metabolism and excretion in the organism; settings: in vivo
[2] = tested on: rats with hemorrhagic stroke (intracerebral post-traumatic hematoma); assay: Hemorrhagic stroke model: neurologic deficit on McGrow's scale; settings: HS rats, 100 mg/Kg internally; 1 day after operation
Procedure: (§1) Experiments have been conducted on white outbred male rats having weights from 200 to 250 grams. The rats have been held in vivarium conditions with free access to meals and water, under the natural change of days and nights. For the purpose of generating hemorrhagic stroke (HS) in rats narcotized with chloral hydrate (400 mg/Kg) stereotaxic craniotomy was conducted and then brain tissue in the capsula interna area was destructed with a mandarin knife, and blood (0.02 to 0.03 mL) taken under a rat tongue was injected into the place of destruction. Thus, local autohemorrhagic bilateral stroke was generated in the capsula interna area (diameter 2 mm, depth 3 mm) without damaging the above-located brain formations and neocortex. Falsely operated animals and animals with HS fed with a saline were used as the control animals. Intragastric administration of Phenotropil at a dose of 100 mg/Kg was performed with the use of a special tube in 5 hours after the operation and then daily for 7 days at the time of the day±3 minutes.
(§2) The Phenotropil influence was evaluated for survivability of the animals, for the neurologic deficit level on the McGrow stroke-index scale in the modification of I. V. Gannushkina (1977) and in the Rotarod test, for muscular tonus maintenance in the test of chinning up on a horizontal bar, for orientation and exploration behavior in the open-field test. Study of cognitive functions was conducted on a standard unit for conditioned reflex of passive avoidance (CRPA). A test for CRPA repetition (for maintenance of a memory trail) was conducted in 24 hours after training as well as on the 3rd, 7th and 14th days after the operation. The latent time of the first entering in a dark chamber was registered when the burrow reflex maintenance was evaluated.

[3] = tested on: rats with hemorrhagic stroke (intracerebral post-traumatic hematoma); assay: Hemorrhagic stroke model: conditioned reflex of passive avoidance (CRPA); settings: for Latent time of entering into a dark chamber / Number of rats which did not entered a dark chamber: HS rats, 100 mg/Kg
Procedure: as §1, §2

[4] = tested on: rats with hemorrhagic stroke (intracerebral post-traumatic hematoma); assay: Hemorrhagic stroke model: open-field orientation-and-exploratory behavior; settings: for Exploration of holes / Horizontal motion activity / Total index / Vertical motion activity: HS + Phenotropil
Procedure: as §1, §2

[5] = tested on: rats with hemorrhagic stroke (intracerebral post-traumatic hematoma); assay: Hemorrhagic stroke model: burrow reflex; settings: HS rats, one-time administration; 1 day after operation
Procedure: (§3) Experiments have been conducted on white outbred male rats having weights from 200 to 250 grams. The rats have been held in vivarium conditions with free access to meals and water, under the natural change of days and nights. For the purpose of generating hemorrhagic stroke (HS) in rats narcotized with chloral hydrate (400 mg/Kg) stereotaxic craniotomy was conducted and then brain tissue in the capsula interna area was destructed with a mandarin knife, and blood (0.02 to 0.03 mL) taken under a rat tongue was injected into the place of destruction. Thus, local autohemorrhagic bilateral stroke was generated in the capsula interna area (diameter 2 mm, depth 3 mm) without damaging the above-located brain formations and neocortex. Falsely operated animals and animals with HS fed with a saline were used as the control animals. […]
The Phenotropil influence was evaluated for survivability of the animals, for the neurologic deficit level on the McGrow stroke-index scale in the modification of I. V. Gannushkina (1977) and in the Rotarod test, for muscular tonus maintenance in the test of chinning up on a horizontal bar, for orientation and exploration behavior in the open-field test. […] The latent time of the first entering in a dark chamber was registered when the burrow reflex maintenance was evaluated. […]

Toxicity (LD30) = settings: in vivo
[6] = tested on: rats with hemorrhagic stroke (intracerebral post-traumatic hematoma); assay: Hemorrhagic stroke model: survivability of animals
Procedure: as §3
The Phenotropil influence was evaluated for survivability of the animals, for the neurologic deficit level on the McGrow stroke-index scale in the modification of I. V. Gannushkina (1977) and in the Rotarod test, for muscular tonus maintenance in the test of chinning up on a horizontal bar, for orientation and exploration behavior in the open-field test. […] The latent time of the first entering in a dark chamber was registered when the burrow reflex maintenance was evaluated.

[7] = repetition of the CRPA in 3 days
[8] = repetition of the CRPA in 7 days
[9] = repetition of the CRPA in 14 days

NC(=O)CN1CC(c2ccccc2)CC1=O (centres unmarked) [Phenotropil, N-carbomoyl-methyl-4-phenyl-2-pyrrolidon]
Metabolism in the organism [1]: not metabolized in the organism and goes out of it in the unchanged form
Number of animals with flabbiness, slowness of motions [2]: 50%
Number of animals with paresis of 1-4 limbs [2]: 30%
Number of animals with weakness of limbs [2]: 40* %
Increase of the latent time of entering the dark chamber in comparison to the HS-group ([3]; 100 mg/Kg one-time administration 5 hours after operation, CRPA one day after training): 48%
Increase of the number of animals with maintained memory in comparison to the HS-group ([3]; 100 mg/Kg one-time administration 5 hours after operation, after one day): 60%
Latent time of entering into a dark chamber ([3]; repetition of the CRPA in 24 hours after training): 101.1 ± 24.2 s
Number of rats which did not entered a dark chamber ([3]; repetition of the CRPA in 24 hours after training, 100 mg/kg): 40%
Latent time of entering into a dark chamber [3, 7]: 98.3 ± 18.7 s
Number of rats which did not entered a dark chamber [3, 7]: 40** %
Latent time of entering into a dark chamber [3, 8]: 75.2 ± 24.1 s
Number of rats which did not entered a dark chamber [3, 8]: 30** %
Latent time of entering into a dark chamber [3, 9]: 83.2 ± 26.7 s
Number of rats which did not entered a dark chamber [3, 9]: 40** %
Exploration of holes ([4]; 1st day after operation): 1.3 ± 0.5
Horizontal motion activity ([4]; 1st day after operation): 8.8 ± 3.5
Total index ([4]; 1st day after operation): 14.5 ± 5.5
Vertical motion activity ([4]; 1st day after operation): 4.4 ± 2.1
Exploration of holes ([4]; 3rd day after operation): 1.9 ± 0.7
Horizontal motion activity ([4]; 3rd day after operation): 15.2 ± 5.4
Total index ([4]; 3rd day after operation): 21.6 ± 6.1
Vertical motion activity ([4]; 3rd day after operation): 4.5 ± 1.5
Exploration of holes ([4]; 7th day after operation): 4.6 ± 1.3
Horizontal motion activity ([4]; 7th day after operation): 20.9 ± 4.1
Total index ([4]; 7th day after operation): 36.4 ± 5.6
Vertical motion activity ([4]; 7th day after operation): 10.9 ± 3.2
Exploration of holes ([4]; 14th day after operation): 3.0 ± 0.7
Horizontal motion activity ([4]; 14th day after operation): 12.2 ± 2.8
Total index ([4]; 14th day after operation): 22.1 ± 3.5
Vertical motion activity ([4]; 14th day after operation): 6.9 ± 1.9
Increase of total index of motion behavior compared to rats of the HS group ([4]; registered in 7 days): 2.7 times
Latent time of entering into a dark chamber during training in the burrow reflex [5]: 30.6 ± 8.8
LD30 (Toxicity (LD30)): 800 mg/kg
Effect on death of the animals ([6]; 100 mg/Kg once a day for 7 days, 14 days of observation): completely prevented death of the animals
Cases in which death of animals was prevented ([6]; hemorrhagic stroke, 100 mg/Kg): 100%
